# Publication PMC9116245, “New 1,2,3-triazole linked ciprofloxacin-chalcones induce DNA damage by inhibiting human topoisomerase I& II and tubulin polymerization” (Journal of Enzyme Inhibition and Medicinal Chemistry, 2022)
# Where two headings read alike, the source gives them in different places.
# What was measured:
# CCRF-CEM = assay type: cell-based; conditions: Homo sapiens
# HL-60(TB) = assay type: cell-based; conditions: Homo sapiens
# K-562 = assay type: cell-based, human
# MOLT-4 = assay type: cell-based; conditions: Homo sapiens
# SR = assay type: cell-based, human
# EKVX = assay type: cell-based; conditions: Homo sapiens
# HOP-62 = assay type: cell-based; conditions: Homo sapiens
# NCI-H23 = assay type: cell-based; conditions: Homo sapiens
# NCI-H522 = assay type: cell-based; conditions: Homo sapiens
# HCT-116 = assay type: cell-based, human
# HT29 = assay type: cell-based; conditions: Homo sapiens
# KM12 = assay type: cell-based; conditions: Homo sapiens
# SW-620 = assay type: cell-based; conditions: Homo sapiens
# SF-268 = assay type: cell-based; conditions: Homo sapiens
# SF-295 = assay type: cell-based; conditions: Homo sapiens
# SNB-19 = assay type: cell-based; conditions: Homo sapiens
# SNB-75 = assay type: cell-based; conditions: Homo sapiens
# LOX IMVI = assay type: cell-based; conditions: Homo sapiens
# MDA-MB-435 = assay type: cell-based; conditions: Homo sapiens
# SK-MEL-2 = assay type: cell-based; conditions: Homo sapiens
# SK-MEL-5 = assay type: cell-based; conditions: Homo sapiens
# UACC-62 = assay type: cell-based; conditions: Homo sapiens
# IGROV1 = assay type: cell-based; conditions: Homo sapiens, IGROV-1
# OVCAR-3 = assay type: cell-based; conditions: Homo sapiens
# OVCAR-4 = assay type: cell-based; conditions: Homo sapiens
# OVCAR-5 = assay type: cell-based; conditions: Homo sapiens
# OVCAR-8 = assay type: cell-based; conditions: Homo sapiens
# NCI/ADR-RES = assay type: cell-based; conditions: Homo sapiens
# 786-0 = assay type: cell-based; conditions: Homo sapiens
# A498 = assay type: cell-based; conditions: Homo sapiens
# ACHN = assay type: cell-based; conditions: Homo sapiens
# TK-10 = assay type: cell-based; conditions: Homo sapiens
# UO-31 = assay type: cell-based; conditions: Homo sapiens
# HS 578T = assay type: cell-based
# BT-549 = assay type: cell-based; conditions: Homo sapiens
# MDA-MB-468 = assay type: cell-based; conditions: Homo sapiens
# [1] = tested on: 59 human cancer cell-lines; assay type: cell-based
# [2] = read-out: LC50 (the source's name)
# [3] = panel mean graph midpoint, Units Molar
smiles,measurement,setting,value
"COc1cc(/C=C/C(=O)c2ccc(-n3cc(CN4CCN(c5cc6c(cc5F)c(=O)c(C(=O)O)cn6C5CC5)CC4)nn3)cc2)cc(OC)c1OC [Compound 4j, (E)-1-cyclopropyl-6-fluoro-4-oxo-7–(4-((1–(4-(3-(3,4,5-trimethoxyphenyl)acryloyl)phenyl)-1H-1,2,3-triazol-4-yl)methyl)piperazin-1-yl)-1,4-dihydroquinoline-3-carboxylic acid]",GI50,CCRF-CEM,2.63 µM
same,CC50,CCRF-CEM; [2],> 100 µM
same,GI50,HL-60(TB),3.18 µM
same,CC50,HL-60(TB); [2],> 100 µM
same,GI50,K-562,0.97 µM
same,GI50,"K-562; Homo sapiens, K562",0.977 µM
same,CC50,"K-562; Homo sapiens, K562, read-out: LC50 (the source's name)",> 100 µM
same,GI50,MOLT-4,3.32 µM
same,CC50,MOLT-4; [2],> 100 µM
same,GI50,SR,0.43 µM
same,GI50,SR; Homo sapiens,0.434 µM
same,CC50,"SR; Homo sapiens, read-out: LC50 (the source's name)",> 100 µM
same,GI50,EKVX,4.24 µM
same,CC50,EKVX; [2],> 100 µM
same,GI50,HOP-62,2.49 µM
same,CC50,HOP-62; [2],> 100 µM
same,GI50,NCI-H23,2.97 µM
same,CC50,NCI-H23; [2],> 100 µM
same,GI50,NCI-H522,4.25 µM
same,LC50,NCI-H522,> 100 µM
same,GI50,HCT-116; HCT-116,0.21 µM
same,GI50,"HCT-116; Homo sapiens, HCT-116, HCT-116",0.206 µM
same,IC50,"HCT-116; Homo sapiens, HCT-116, HCT116, SRB assay",0.2 µM
same,GI50,HT29; HT-29,1.24 µM
same,CC50,"HT29; HT-29, read-out: LC50 (the source's name)",> 100 µM
same,GI50,KM12,1.57 µM
same,CC50,KM12; [2],> 100 µM
same,GI50,SW-620,1.37 µM
same,CC50,SW-620; [2],> 100 µM
same,GI50,SF-268,3.09 µM
same,CC50,SF-268; [2],> 100 µM
same,GI50,SF-295,2.91 µM
same,CC50,SF-295; [2],> 100 µM
same,GI50,SNB-19,4.52 µM
same,CC50,SNB-19; [2],> 100 µM
same,GI50,SNB-75,1.49 µM
same,CC50,SNB-75; [2],> 100 µM
same,GI50,LOX IMVI,1.57 µM
same,CC50,LOX IMVI; [2],> 100 µM
same,GI50,MDA-MB-435,1.49 µM
same,CC50,MDA-MB-435; [2],> 100 µM
same,GI50,SK-MEL-2,21.1 µM
same,CC50,SK-MEL-2; [2],> 100 µM
same,GI50,SK-MEL-5,2.64 µM
same,CC50,SK-MEL-5; [2],> 100 µM
same,GI50,UACC-62,2.83 µM
same,CC50,UACC-62; [2],57.7 µM
same,GI50,IGROV1,1.64 µM
same,GI50,OVCAR-3,1.84 µM
same,CC50,OVCAR-3; [2],> 100 µM
same,GI50,OVCAR-4,3.94 µM
same,CC50,OVCAR-4; [2],39.6 µM
same,GI50,OVCAR-5,3.7 µM
same,CC50,OVCAR-5; [2],> 100 µM
same,GI50,OVCAR-8,4.03 µM
same,CC50,OVCAR-8; [2],> 100 µM
same,GI50,NCI/ADR-RES,> 100 µM
same,CC50,NCI/ADR-RES; [2],> 100 µM
same,GI50,786-0,1.67 µM
same,GI50,A498,4.18 µM
same,CC50,A498; [2],39.8 µM
same,GI50,ACHN,3.5 µM
same,CC50,ACHN; [2],> 100 µM
same,GI50,TK-10,5.61 µM
same,CC50,TK-10; [2],> 100 µM
same,GI50,UO-31,1.73 µM
same,CC50,UO-31; [2],30.5 µM
same,TGI,HS 578T; HS 578 T,>100 µM
same,TGI,HS 578T; HS 578T,> 1.00E-4 Molar
same,GI50,"HS 578T; Homo sapiens, HS 578T",3.91 µM
same,CC50,"HS 578T; Homo sapiens, HS 578T, read-out: LC50 (the source's name)",> 100 µM
same,GI50,BT-549,1.71 µM
same,GI50,MDA-MB-468,1.96 µM
same,CC50,MDA-MB-468; [2],> 100 µM
same,GI50,"[1]; Homo sapiens, range over all cancer cell lines",0.21 to 21.1 µM
same,Log10GI50 _MID,[1]; [3],-5.58
same,Log10LC50 _MID,[1]; [3],-4.06
same,Log10TGI _MID,[1]; [3],-4.58
